Reference: patent US20120171274A1, “TRANSDERMAL PATCH” (priority 2006, published 2012)

Legend:
Format in all cases: physicochemical
[1] = Solvency of the active substance in monomer (visual inspection); set-up: key: Excellent: The active substance was not found to have been precipitated in the solution of active substance both immediately after the preparation and after the preservation for 7 days.; Good: The active substance was found to have been precipitated in the solution of active substance immediately after the preparation, but the active substance was not found to have been precipitated in the solution of active substance after the preservation for 7 days.; Poor: The active substance was found to have been precipitated in the solution of active substance both immediately after the preparation and after the preservation for 7 days; settings: 3 parts active substance per 100 parts monomer, 25° C., 7 days
[2] = Residual rate of the active substance in monomer solution (HPLC); settings: for Residual Rate of active substance, Immediately after Preparation: 3 parts per 100 parts monomer; for Residual Rate of active substance, after 7 Days: preserved at 25° C. for 7 days
[3] = Solvency of DMAE in fatty acid ester or additive; settings: 50 parts DMAE in 950 parts, 25° C.
Protocol: When a crystal of DMAE was precipitated […], and when a crystal of DMAE was not precipitated, the solvency was evaluated to be “poor”.

[4] = Solubility of DMAE at 25° C. (HPLC); settings: g per 100 g of solvent
[5] = monomer: 2-Ethylhexyl Methacrylate

CC(C)(C)NCC(O)c1ccccc1Cl (stereo not shown) [TB, tulobuterol]
Solvency of active substance ([1]; monomer: 1-Vinyl-2-Pyrrolidone): Excellent | Solvency of active substance ([1]; monomer: 2-Ethylhexyl Acrylate): Excellent | Solvency of active substance [1, 5]: Excellent | Solvency of active substance ([1]; monomer: Acrylic Acid): Excellent | Solvency of active substance ([1]; monomer: Butyl Acrylate): Excellent | Solvency of active substance ([1]; monomer: Butyl Methacrylate): Excellent | Solvency of active substance ([1]; monomer: Dodecyl Methacrylate): Good | Solvency of active substance ([1]; monomer: Ethyl Acrylate): Excellent | Residual Rate of active substance, Immediately after Preparation ([2]; monomer: 1-Vinyl-2-Pyrrolidone): 100 % by weight | Residual Rate of active substance, after 7 Days ([2]; monomer: 1-Vinyl-2-Pyrrolidone): 100 % by weight | Residual Rate of active substance, Immediately after Preparation ([2]; monomer: 2-Ethylhexyl Acrylate): 100 % by weight | Residual Rate of active substance, after 7 Days ([2]; monomer: 2-Ethylhexyl Acrylate): 88 % by weight | Residual Rate of active substance, Immediately after Preparation [2, 5]: 100 % by weight | Residual Rate of active substance, after 7 Days [2, 5]: 100 % by weight | Residual Rate of active substance, Immediately after Preparation ([2]; monomer: Acrylic Acid): 100 % by weight | Residual Rate of active substance, after 7 Days ([2]; monomer: Acrylic Acid): 96 % by weight | Residual Rate of active substance, Immediately after Preparation ([2]; monomer: Butyl Acrylate): 100 % by weight | Residual Rate of active substance, after 7 Days ([2]; monomer: Butyl Acrylate): 81 % by weight | Residual Rate of active substance, Immediately after Preparation ([2]; monomer: Butyl Methacrylate): 100 % by weight | Residual Rate of active substance, after 7 Days ([2]; monomer: Butyl Methacrylate): 100 % by weight | Residual Rate of active substance, Immediately after Preparation ([2]; monomer: Dodecyl Methacrylate): 100 % by weight | Residual Rate of active substance, after 7 Days ([2]; monomer: Dodecyl Methacrylate): 100 % by weight | Residual Rate of active substance, Immediately after Preparation ([2]; monomer: Ethyl Acrylate): 100 % by weight | Residual Rate of active substance, after 7 Days ([2]; monomer: Ethyl Acrylate): 70 % by weight

COc1ccc(OC)c(C(O)CN)c1 (stereo not shown) [DMAE, 2-amino-1-(2′,5′-dimethoxyphenyl)ethanol]
Solvency of active substance ([1]; monomer: 1-Vinyl-2-Pyrrolidone): Poor | Solvency of active substance ([1]; monomer: 2-Ethylhexyl Acrylate): Poor | Solvency of active substance [1, 5]: Poor | Solvency of active substance ([1]; monomer: Acrylic Acid): Excellent | Solvency of active substance ([1]; monomer: Butyl Acrylate): Good | Solvency of active substance ([1]; monomer: Butyl Methacrylate): Poor | Solvency of active substance ([1]; monomer: Dodecyl Methacrylate): Poor | Solvency of active substance ([1]; monomer: Ethyl Acrylate): Excellent | Residual Rate of active substance, Immediately after Preparation ([2]; monomer: 1-Vinyl-2-Pyrrolidone): 100 % by weight | Residual Rate of active substance, after 7 Days ([2]; monomer: 1-Vinyl-2-Pyrrolidone): 100 % by weight | Residual Rate of active substance, Immediately after Preparation ([2]; monomer: 2-Ethylhexyl Acrylate): 39 % by weight | Residual Rate of active substance, after 7 Days ([2]; monomer: 2-Ethylhexyl Acrylate): 11 % by weight | Residual Rate of active substance, Immediately after Preparation [2, 5]: 99 % by weight | Residual Rate of active substance, after 7 Days [2, 5]: 99 % by weight | Residual Rate of active substance, Immediately after Preparation ([2]; monomer: Acrylic Acid): 99 % by weight | Residual Rate of active substance, after 7 Days ([2]; monomer: Acrylic Acid): 97 % by weight | Residual Rate of active substance, Immediately after Preparation ([2]; monomer: Butyl Acrylate): 27 % by weight | Residual Rate of active substance, Immediately after Preparation ([2]; monomer: Butyl Methacrylate): 98 % by weight | Residual Rate of active substance, after 7 Days ([2]; monomer: Butyl Methacrylate): 98 % by weight | Residual Rate of active substance, Immediately after Preparation ([2]; monomer: Dodecyl Methacrylate): 100 % by weight | Residual Rate of active substance, after 7 Days ([2]; monomer: Dodecyl Methacrylate): 99 % by weight | Solvency of DMAE ([3]; solvent Butylene Glycol): Poor | Solvency of DMAE ([3]; solvent Diethyl Sebacate): Excellent | Solvency of DMAE ([3]; solvent Hexyl Laurate): Excellent | Solvency of DMAE ([3]; solvent Isopropyl Myristate): Excellent | Solvency of DMAE ([3]; solvent Isopropyl Palmitate): Excellent | Solvency of DMAE ([3]; solvent Isostearic Acid): Poor | Solvency of DMAE ([3]; solvent Liquid Paraffin): Excellent | Solvency of DMAE ([3]; solvent Medium-chain Triglyceride): Excellent | Solvency of DMAE ([3]; solvent Monoethanolamine): Poor | Solvency of DMAE ([3]; solvent Octanediol): Poor | Solvency of DMAE ([3]; solvent Octyldodecyl Myristate): Excellent | Solvency of DMAE ([3]; solvent Oleic Acid): Excellent | Solvency of DMAE ([3]; solvent Oleyl Alcohol): Excellent | Solvency of DMAE ([3]; solvent Polyoxyethylene (2) Lauryl Ether): Excellent | Solvency of DMAE ([3]; solvent Propylene Glycol): Poor | Solvency of DMAE ([3]; solvent Squalane): Excellent | Solvency of DMAE ([3]; solvent Triacetin): Poor | Solubility of DMAE ([4]; in Diethyl Sebacate): 0.9 g | Solubility of DMAE ([4]; in Hexyl Laurate): 0.2 g | Solubility of DMAE ([4]; in Isopropyl Myristate): 0.2 g | Solubility of DMAE ([4]; in Isopropyl Palmitate): 0.2 g | Solubility of DMAE ([4]; in Liquid Paraffin): 0.02 g | Solubility of DMAE ([4]; in Medium-chain Triglyceride): 0.3 g | Solubility of DMAE ([4]; in Octyldodecyl Myristate): 0.05 g | Solubility of DMAE ([4]; in Oleic Acid): 3.7 g | Solubility of DMAE ([4]; in Oleyl Alcohol): 2.5 g | Solubility of DMAE ([4]; in Polyoxyethylene (2) Lauryl Ether): 3.7 g | Solubility of DMAE ([4]; in Squalane): 0.01 g

O=[N+]([O-])O[C@H]1CO[C@H]2[C@@H]1OC[C@H]2O[N+](=O)[O-] [ISDN, isosorbide dinitrate]
Solvency of active substance ([1]; monomer: 1-Vinyl-2-Pyrrolidone): Excellent | Solvency of active substance ([1]; monomer: 2-Ethylhexyl Acrylate): Excellent | Solvency of active substance [1, 5]: Excellent | Solvency of active substance ([1]; monomer: Acrylic Acid): Excellent | Solvency of active substance ([1]; monomer: Butyl Acrylate): Excellent | Solvency of active substance ([1]; monomer: Butyl Methacrylate): Excellent | Solvency of active substance ([1]; monomer: Dodecyl Methacrylate): Excellent | Solvency of active substance ([1]; monomer: Ethyl Acrylate): Excellent | Residual Rate of active substance, Immediately after Preparation ([2]; monomer: 1-Vinyl-2-Pyrrolidone): 100 % by weight | Residual Rate of active substance, after 7 Days ([2]; monomer: 1-Vinyl-2-Pyrrolidone): 100 % by weight | Residual Rate of active substance, Immediately after Preparation ([2]; monomer: 2-Ethylhexyl Acrylate): 100 % by weight | Residual Rate of active substance, after 7 Days ([2]; monomer: 2-Ethylhexyl Acrylate): 100 % by weight | Residual Rate of active substance, Immediately after Preparation [2, 5]: 100 % by weight | Residual Rate of active substance, after 7 Days [2, 5]: 99 % by weight | Residual Rate of active substance, Immediately after Preparation ([2]; monomer: Acrylic Acid): 100 % by weight | Residual Rate of active substance, after 7 Days ([2]; monomer: Acrylic Acid): 100 % by weight | Residual Rate of active substance, Immediately after Preparation ([2]; monomer: Butyl Acrylate): 100 % by weight | Residual Rate of active substance, after 7 Days ([2]; monomer: Butyl Acrylate): 100 % by weight | Residual Rate of active substance, Immediately after Preparation ([2]; monomer: Butyl Methacrylate): 100 % by weight | Residual Rate of active substance, after 7 Days ([2]; monomer: Butyl Methacrylate): 100 % by weight | Residual Rate of active substance, Immediately after Preparation ([2]; monomer: Dodecyl Methacrylate): 100 % by weight | Residual Rate of active substance, after 7 Days ([2]; monomer: Dodecyl Methacrylate): 100 % by weight | Residual Rate of active substance, Immediately after Preparation ([2]; monomer: Ethyl Acrylate): 100 % by weight | Residual Rate of active substance, after 7 Days ([2]; monomer: Ethyl Acrylate): 100 % by weight

COc1ccc2c(c1)c(CC(=O)O)c(C)n2C(=O)c1ccc(Cl)cc1 [IMT, indomethacin]
Solvency of active substance ([1]; monomer: 1-Vinyl-2-Pyrrolidone): Excellent | Solvency of active substance ([1]; monomer: 2-Ethylhexyl Acrylate): Poor | Solvency of active substance [1, 5]: Poor | Solvency of active substance ([1]; monomer: Acrylic Acid): Excellent | Solvency of active substance ([1]; monomer: Butyl Acrylate): Poor | Solvency of active substance ([1]; monomer: Butyl Methacrylate): Poor | Solvency of active substance ([1]; monomer: Dodecyl Methacrylate): Poor | Solvency of active substance ([1]; monomer: Ethyl Acrylate): Poor | Residual Rate of active substance, Immediately after Preparation ([2]; monomer: 1-Vinyl-2-Pyrrolidone): 100 % by weight | Residual Rate of active substance, after 7 Days ([2]; monomer: 1-Vinyl-2-Pyrrolidone): 100 % by weight | Residual Rate of active substance, Immediately after Preparation ([2]; monomer: 2-Ethylhexyl Acrylate): 100 % by weight | Residual Rate of active substance, after 7 Days ([2]; monomer: 2-Ethylhexyl Acrylate): 100 % by weight | Residual Rate of active substance, Immediately after Preparation [2, 5]: 100 % by weight | Residual Rate of active substance, after 7 Days [2, 5]: 100 % by weight | Residual Rate of active substance, Immediately after Preparation ([2]; monomer: Acrylic Acid): 100 % by weight | Residual Rate of active substance, after 7 Days ([2]; monomer: Acrylic Acid): 100 % by weight | Residual Rate of active substance, Immediately after Preparation ([2]; monomer: Butyl Acrylate): 100 % by weight | Residual Rate of active substance, after 7 Days ([2]; monomer: Butyl Acrylate): 100 % by weight | Residual Rate of active substance, Immediately after Preparation ([2]; monomer: Butyl Methacrylate): 100 % by weight | Residual Rate of active substance, after 7 Days ([2]; monomer: Butyl Methacrylate): 99 % by weight | Residual Rate of active substance, Immediately after Preparation ([2]; monomer: Dodecyl Methacrylate): 100 % by weight | Residual Rate of active substance, after 7 Days ([2]; monomer: Dodecyl Methacrylate): 100 % by weight | Residual Rate of active substance, Immediately after Preparation ([2]; monomer: Ethyl Acrylate): 100 % by weight | Residual Rate of active substance, after 7 Days ([2]; monomer: Ethyl Acrylate): 99 % by weight
